Assay results published in patent US20150352108A1, “AMINO-PYRIMIDINE COMPOUNDS AS INHIBITORS OF TBK1 AND/OR IKK EPSILON” (Alzheimer's Institute of America, priority 2009, published 2015).

Experiments:
IKKε = molecular target: T1, IKKε (Homo sapiens, UniProt Q14164); assay: In-vitro IKKε kinase assay ([γ33]ATP filter-plate); type: biochemical; settings: text bins; read-out: IC50 for inhibition of the kinase activity of IKKε
T1 construct: His-tag; made in house; host or cells: Sf9 insect cells
T1 sequence (Q14164 1-716): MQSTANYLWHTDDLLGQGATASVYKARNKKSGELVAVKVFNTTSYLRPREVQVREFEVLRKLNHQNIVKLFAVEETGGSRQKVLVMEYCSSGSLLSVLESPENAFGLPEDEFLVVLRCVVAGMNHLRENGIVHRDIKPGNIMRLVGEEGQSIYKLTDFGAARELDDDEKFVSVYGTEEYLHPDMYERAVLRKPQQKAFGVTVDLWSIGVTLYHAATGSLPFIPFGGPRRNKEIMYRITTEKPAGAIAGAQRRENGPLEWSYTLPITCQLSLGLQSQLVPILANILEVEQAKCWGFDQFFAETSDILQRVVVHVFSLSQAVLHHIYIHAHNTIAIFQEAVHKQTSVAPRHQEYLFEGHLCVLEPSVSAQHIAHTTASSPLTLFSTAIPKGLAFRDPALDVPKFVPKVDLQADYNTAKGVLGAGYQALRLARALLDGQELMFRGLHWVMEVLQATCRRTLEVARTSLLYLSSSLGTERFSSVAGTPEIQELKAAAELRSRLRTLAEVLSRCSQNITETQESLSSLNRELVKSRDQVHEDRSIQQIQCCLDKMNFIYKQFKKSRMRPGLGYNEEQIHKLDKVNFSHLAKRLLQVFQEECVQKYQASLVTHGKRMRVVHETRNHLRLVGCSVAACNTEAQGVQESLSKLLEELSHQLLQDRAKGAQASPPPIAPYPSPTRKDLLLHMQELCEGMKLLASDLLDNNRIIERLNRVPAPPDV
How it was run: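 His-tagged Sf9-expressed kinases at 0.1 or 0.02 μg/ml (TBK1) and 0.1 or 0.015 μg/ml (IKKε) for normal and sensitized formats, with myelin basic protein or casein substrate. ATP was at 2×Km (60 μM TBK1, 32 μM IKKε) plus 0.3 μCi [γ33]ATP. Reactions ran 30-45 min, were captured on P-81 filters, and counts were normalized to DMSO.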

[1] = test system: IKKε-mediated phosphorylation of IRF3; assay: In-situ phosphorylation of IRF3 (pIRF3 Ser396 ELISA) in HEK293T cells cotransfected with IRF3 and IKKε; type: cell-based; settings: Homo sapiens, HEK-293T; HEK293T cells, 20 hours, text bins; read-out: IC50 for inhibition of the in-situ IKKε-mediated phosphorylation of IRF3
Experimental: HEK293T cells were cotransfected in a 10-cm dish with IRF3 and IKKε expression plasmids using Lipofectamine 2000 (Invitrogen, Carlsbad, Calif.). The following day, cells were replated at 20,000 per well in 96-well plates and treated with test compounds (compounds according to Formula I) for 20 hours. Cell lysates were prepared and analyzed using an ELISA for phospho-Ser396 (anti-IRF3 capture antibody, Santa Cruz Biotechnology, Inc., Santa Cruz, Calif.; anti-p-Ser396 IRF3 detection antibody, Cell Signaling, Danvers, Mass.). pIRF3 levels in compound treated cells were normalized to DMSO treated cells (no compound). Cell viability was assayed in a parallel set of plates to monitor cytotoxic effects of the test compounds (CellTiter-Glo, Promega, Inc., Madison, Wis.). TBK1 activity was tested by Western blotting using a phospho-specific IRF7 antibody. Similar to above, HEK293T cells were transfected with IRF7 and TBK1 expression plasmids. Cells were seeded in 12-well plates at 150,000 per well and treated overnight with test compounds. Protein lysates were prepared and processed for Western blotting followed by detection using a phosphor-Ser477/Ser479 IRF7 antibody (BD Biosciences, San Jose, Calif.)

Row | IC50 (IKKε) [nM] | IC50 [1] [nM] | SMILES
1 | < 5 | 250 to 500 | N#Cc1cc(-c2ccnc(Nc3cccc(-n4cccn4)c3)n2)ccc1OC1CCOCC1 [compound 578, 5-(2-{[3-(1H-Pyrazol-1-yl)phenyl]amino}pyrimidin-4-yl)-2-(tetrahydro-2H-pyran-4-yloxy)benzonitrile]
2 | < 5 | < 100 | Cc1cn(Cc2cccc(Nc3nccc(-c4ccc(OC5CCOCC5)c(C#N)c4)n3)c2)cn1 [compound 653, 5-[2-({3-[(4-Methyl-1H-imidazol-1-yl)methyl]phenyl}amino)pyrimidin-4-yl]-2-(tetrahydro-2H-pyran-4-yloxy)benzonitrile]
3 | < 5 | 100 to 250 | COc1cc(Nc2nccc(-c3ccc(OCC4CC4)c(C#N)c3)n2)ccc1CN1CC(OC)C1 [compound 617, 2-(Cyclopropylmethoxy)-5-[2-({3-methoxy-4-[(3-methoxyazetidin-1-yl)methyl]phenyl}amino)pyrimidin-4-yl]benzonitrile]
4 | < 5 | < 100 | COc1cc(Nc2nccc(-c3ccc(OC4CCOCC4)c(C#N)c3)n2)ccc1-n1cnnn1 [compound 664, 5-(2-{[3-Methoxy-4-(1H-tetrazol-1-yl)phenyl]amino}pyrimidin-4-yl)-2-(tetrahydro-2H-pyran-4-yloxy)benzonitrile]
5 | < 5 | < 100 | N#Cc1cc(-c2nc(Nc3ccc(N4CCOCC4)cc3)ncc2F)ccc1OC1CCOCC1 [compound 592, 5-(5-Fluoro-2-{[4-(morpholin-4-yl)phenyl]amino}pyrimidin-4-yl)-2-(tetrahydro-2H-pyran-4-yloxy)benzonitrile]
6 | < 5 | 250 to 500 | N#Cc1cc(-c2ccnc(Nc3ccc(-n4cncn4)cc3)n2)ccc1OC1CCOCC1 [compound 580, 2-(Tetrahydro-2H-pyran-4-yloxy)-5-(2-{[4-(1H-1,2,4-triazol-1-yl)phenyl]amino}pyrimidin-4-yl)benzonitrile]
7 | < 5 | < 100 | Cc1nccn1Cc1ccc(Nc2nccc(-c3ccc(OC4CCOCC4)c(C#N)c3)n2)cc1 [compound 609, 5-[2-({4-[(2-Methyl-1H-imidazol-1-yl)methyl]phenyl}amino)pyrimidin-4-yl]-2-(tetrahydro-2H-pyran-4-yloxy)benzonitrile]
8 | < 5 | 100 to 250 | CC(C)(O)C(=O)Nc1cccc(Nc2nccc(-c3ccc(OC4CCOCC4)c(C#N)c3)n2)c1 [compound 563, N-[3-({4-[3-Cyano-4-(tetrahydro-2H-pyran-4-yloxy)phentyl]pyrimidin-2-yl}amino)phenyl]-2-hydroxy-2-methylpropanamide]
9 | < 5 | < 100 | COC1CN(C(C)c2ccc(Nc3nccc(-c4ccc(OC5CCOCC5)c(C#N)c4)n3)cc2)C1 (centres unmarked) [compound 571, 5-[2-({4-[1-(3-Methoxyazetidin-1-yl)ethyl]phenyl}amino)pyrimidin-4-yl]-2-(tetrahydro-2H-pyran-4-yloxy)benzonitrile]
10 | < 5 | < 100 | CN(C)C1CCN(C(=O)Nc2cccc(Nc3nccc(-c4ccc(OC5CCOCC5)c(C#N)c4)n3)c2)C1 (centres unmarked) [compound 667, N-[3-({4-[3-Cyano-4-(tetrahydro-2H-pyran-4-yloxy)phenyl]pyrimidin-2-yl}amino)phenyl]-3-(dimethylamino) pyrrolidine-1-carboxamide]
11 | < 5 | < 100 | N#Cc1cc(-c2ccnc(Nc3ccc(Cn4cncn4)cc3)n2)ccc1OC1CCOCC1 [compound 624, 2-(Tetrahydro-2H-pyran-4-yloxy)-5-(2-{[4-(1H-1,2,4-triazol-1-ylmethyl)phenyl]amino}pyrimidin-4-yl)benzonitrile]
12 | < 5 | 250 to 500 | CCN(CC)CCOc1cc(Nc2nccc(-c3ccc(OC4CCN(C(=O)[C@H](C)O)CC4)c(C#N)c3)n2)ccc1F [compound 577, 5-[2-({3-[2-(Diethylamino)ethoxy]-4-fluorophenyl}amino)pyrimidin-4-yl]-2-({1-[(2S)-2-hydroxypropanoyl]piperidin-4-yl}oxy)benzonitrile]
13 | < 5 | < 100 | N#Cc1cc(-c2ccnc(Nc3cccc(CN4CCCC4)c3)n2)ccc1OC1CCOCC1 [compound 542, 5-(2-{[3-(Pyrrolidin-1-ylmethyl)phenyl]amino}pyrimidin-4-yl)-2-(tetrahydro-2H-pyran-4-yloxy)benzonitrile]
14 | < 5 | 100 to 250 | N#Cc1cc(-c2ccnc(Nc3ccc(-n4cnnc4)cc3)n2)ccc1OC1CCOCC1 [compound 607, 2-(Tetrahydro-2H-pyran-4-yloxy)-5-(2-{[4-(4H-1,2,4-triazol-4-yl)phenyl]amino}pyrimidin-4-yl)benzonitrile]
15 | < 5 | 100 to 250 | N#Cc1cc(-c2ccnc(Nc3ccc(S(N)(=O)=O)cc3)n2)ccc1OC1CCOCC1 [compound 564, 4-({4-[3-Cyano-4-(tetrahydro-2H-pyran-4-yloxy)phenyl]pyrimidin-2-yl}amino) benzenesulfonamide]
16 | < 5 | 250 to 500 | N#Cc1cc(-c2ccnc(Nc3ccc(/C=C/CN4CCOCC4)cc3)n2)ccc1OC1CCOCC1 [compound 614, 5-[2-({4-[(1E)-3-(Morpholin-4-yl)prop-1-en-1-yl]phenyl}amino)pyrimidin-4-yl]-2-(tetrahydro-2H-pyran-4-yloxy)benzonitrile]
17 | < 5 | < 100 | CN(C)Cc1cccc(Nc2nccc(-c3ccc(O[C@@H]4CCN(C(=O)CO)C4)c(C#N)c3)n2)c1 [compound 642, 5-[2-({3-[(Dimethylamino)methyl]phenyl}amino)pyrimidin-4-yl]-2-{[(3R)-1-(hydroxyacetyl)pyrrolidin-3-yl]oxy}benzonitrile]
18 | < 5 | < 100 | Cc1ccc(Nc2nccc(-c3ccc(OC4CCOCC4)c(C#N)c3)n2)cc1NCCN(C)C [compound 628, 5-[2-[[3-(2-dimethylamino-ethylamino)-4-methyl-phenyl]amino}pyrimidin-4-yl]-2-tetrahydropyran-4-yloxy-benzonitrile]
19 | < 5 | < 100 | COCCC(=O)Nc1cccc(Nc2nccc(-c3ccc(OC4CCOCC4)c(C#N)c3)n2)c1 [compound 538, N-[3-({4-[3-Cyano-4-(tetrahydro-2H-pyran-4-yloxy)phenyl]pyrimidin-2-yl}amino)phenyl]-3-methoxypropanamide]
20 | < 5 | 100 to 250 | Cn1ccc(C(=O)Nc2cccc(Nc3nccc(-c4ccc(OC5CCOCC5)c(C#N)c4)n3)c2)n1 [compound 547, N-[3-({4-[3-Cyano-4-(tetrahydro-2H-pyran-4-yloxy)phenyl]pyrimidin-2-yl}amino)phenyl]-1-methyl-1H-pyrazole-3-carboxamide]
21 | < 5 | 250 to 500 | Cc1ccc(Nc2nccc(-c3ccc(O[C@@H]4CCN(C(=O)CO)C4)c(C#N)c3)n2)cc1C [compound 643, 5-{2-[(3,4-Dimethylphenyl)amino]pyrimidin-4-yl}-2-{[(3R)-1-(hydroxyacetyl)pyrrolidin-3-yl]oxy}benzonitrile]
22 | < 5 | 100 to 250 | C[C@@H](O)C(=O)Nc1cccc(Nc2nccc(-c3ccc(OC4CCOCC4)c(C#N)c3)n2)c1 [compound 659, (2R)-N-[3-({4-[3-Cyano-4-(tetrahydro-2H-pyran-4-yloxy)phenyl]pyrimidin-2-yl}amino)phenyl]-2-hydroxypropanamide]
